Data: paper PMC3789393, “Purification and Characterization of Phenylalanine Ammonia Lyase from Trichosporon cutaneum” (Enzyme Research, 2013)

Tested on: T1, Trichosporon cutaneum phenylalanine ammonia lyase (TcPAL)
T1 construct: gene PAL; extra bands at 67 and 31 kDa; 79 kDa monomer; PAL typically homotetramer
Test: continuous spectrophotometric assay of trans-cinnamic acid at […] nm
Type: biochemical, Cutaneotrichosporon cutaneum
Details: 10 mM Tris-HCl pH 8.0, 30 °C; trial 1 of 3 (the trial quoted in abstract)

N[C@@H](Cc1ccccc1)C(=O)O [Phe]
Km: 5 ± 1.1 mM
